# Data: patent publication US20260207824A1, “GALLIUM-LOADED HYDROGELS FOR BONE TREATMENT” (NORTHEAST OHIO MEDICAL UNIVERSITY, priority 2022, published 2026)
# Experiments:
# [1] = In-vivo toxicity of GaAcAc solution based on weight of animals; details: 100 μL of 100 μg/mL subcutaneously 1-3×/week for 4 weeks
# Protocol: Groups included in the study are: control: No injections; 1×/week: 100 μL of 100 μg/mL Ga solution injected subcutaneously in the back once per week for 4 weeks; 2×/week: 100 μL of 100 μg/mL Ga solution injected subcutaneously in the back twice per week for 4 weeks; 3×/week: 100 μL of 100 μg/mL Ga solution injected subcutaneously in the back three times per week for 4 weeks.
# [2] = system: murine hematopoietic stem cells (mHSCs); assay: OC differentiation of murine hematopoietic stem cells with M-CSF and RANKL; format: cell-based, C57BL/6 mice
# Protocol: All mice were housed and maintained at Northeast Ohio Medical University according to the guidelines of the Institutional Animal Care and Use Committee. Bone marrow cells were flushed from the femora, and tibiae were extracted from euthanized C57BL/6 mice (male, 6-8 weeks) as described previously. Xing L. and B.F. Boyce, Methods Mol Biol, 1130: p. 307-313(2014). The flushed cells were incubated overnight to separate hematopoietic (in supernatant) and mesenchymal (adherent) stem cells. The supernatant was then collected and seeded at the required density based on the type of well plate used (96 well plate: 2×10^5 cells/well & 24 well plate: 1.5×10^6 cells per well-day 0) in culture media supplemented with 30 ng/ml of M-CSF. […] On day-6, fresh media supplemented with M-CSF & RANKL were added to the differentiating cells. On day-7, the plates were fixed and evaluated for TRAP activity and counted for the number of TRAP-stained multinucleated osteoclasts formed similarly as mentioned above.
# [3] = system: OCs from RAW 264.7 cells; assay: Pit resorption assay on bovine cortical bone slices, OCs from RAW 264.7; format: cell-based, murine; details: vs positive control
# Protocol: To assess the effects of various treatments on OC function, we assessed the possible anti-resorptive effect via pit resorption assay. Briefly, bovine cortical bone slices were cleaned and sterilized as per the manufacturer's instructions and placed in a 24-well plate. The study was carried out using OC derived from either RAW 264.7 differentiation or murine hematopoietic stem cells (mHSCs).
# Using OCs from RAW 264.7 cells, the detached pre-OC cells were seeded on top of the sanitized bovine cortical bone slice using 1.5×10^5 cells/cm^2 supplemented with a complete growth medium on day 0. […] Subsequent treatment with complete media containing RANKL occurred every two days for seven days. After seven days, the wells were aspirated and processed for further analysis.
# To assess the osteoclastic resorptive effect of the wells with or without treatment, the bone slices were fixed with 10% formaldehyde and initially TRAP-stained, as reported. The bone slices were thoroughly cleaned with cotton swab and strained with 0.5% toluidine blue stain and incubated for three minutes at room temperature. The slices were then washed with water five times and patted dry. The pits formed on the bone slices, depicting OC function, were evaluated.
# [4] = system: cFos, NFAT2, TRAF6, TRAP; assay: Western blotting of OC differentiation markers; format: cell-based, murine; details: vs positive control (RANKL)
# Protocol: To investigate the effects on OC differentiation, Pre-OC (RAW 264.7) cells were seeded, treated, and differentiated with various treatments as described under OC differentiation. Afterward, cells were lysed with 100 μL of RIPA buffer containing protease inhibitor. The lysates were collected and centrifuged at 1500 RPM for 10 minutes and analyzed for their protein content via the BCA protein assay kit. Protein samples (20 μg) were separated via 10% SDS-page gel and transferred onto a polyvinylidene fluoride (PVDF) membrane. The membrane was blocked with a respective blocking buffer, either 5% BSA or non-fat dry milk, for an hour. After blocking, the membranes were washed with 1× TBST buffer and later probed with primary antibodies; NFAT2, TRAP, TRAF6 and cFos with GAPDH as a loading control, diluted with 2% respective blocking buffer overnight at 4° C., followed by a 1-hour incubation with secondary HRP conjugated anti-rabbit IgG secondary antibody. The blots were visualized using the Fluorchem system.
# [5] = system: RAW 264.7 cells; assay: OC differentiation of RAW 264.7 cells with RANKL (TRAP activity, OC count, TRAP staining); format: cell-based, murine; details: for TRAP activity: vs positive control (RANKL alone); for number of TRAP-stained OCs (OC count): vs positive control, p<0.0001
# Protocol: Pre-osteoclast (RAW 264.7) cells were differentiated by treating the cells with culture media supplemented with or without different concentration of F127 hydrogel (HG) leachates and 30 ng/ml RANKL. The cells were then assessed for TRAP activity and stained. (A) TRAP activity; (B) OC count. Only cells which have 3 or more nuclei and were TRAP stained, i.e., pink color were counted. Each data point represents Mean±SD; n=4 wells. *** p<0.0001, *p<0.01 vs RANKL.
# RAW 264.7 (Pre-OC) cells were seeded at a density of 1.5×10^5 cells/cm^2 (day 0) in a 24-well bottom dish of an insert plate and incubated overnight for adherence. Subsequently, (day 1), cells were treated with growth media supplemented with 30 ng/ml of RANKL (positive control) alone or RANKL (30 ng/ml) together with various treatments-GaAcAc solution, MH, or GaMH. […] After the initial treatment and RANKL supplementation, cells in all treatment groups (except untreated control) received RANKL supplementation on day 3 to induce OC formation. On day 4, mature OCs were fixed at 4% paraformaldehyde for 10 minutes at room temperature and evaluated for the extent of OC differentiation based on tartrate-resistant acid phosphatase (TRAP) activity and stained with TRAP staining solution. TRAP (pink colored) stained and multinucleated (≥3 nuclei) cells according to earlier reported methods. Abdelmagid et al., J Biol Chem, 290(33): p. 20128-46 (2015).
# [6] = system: MC3T3 cells; assay: Biocompatibility (MTT cell viability) of GaAcAc in pre-osteoblastic cells; format: cell-based; details: GaAcAc 10-50 μg/mL, 37° C., vs untreated control
# Protocol: (§1) RAW 264.7 (pre-osteoclast) and MC3T3 (pre-osteoblast) cells were cultured and maintained in DMEM & AMEM supplemented with 10% FBS and 1% PenStrep in a humidified incubator at 37° C. and 5% CO2 conditions. RAW and MC 3 T3 cells, upon 70-80% confluency, were gently detached using a cell scraper and/or 0.25% v/v trypsin/EDTA. The detached cell suspension was collected and centrifuged at 1500 RPM for 5 minutes and seeded accordingly to the requirement for each experiment.
# (§2) After the stipulated time of incubation, cell viability was measured by MTT assay using untreated control cells as a reference.
# [7] = system: Cathepsin K (CTSK); assay: CTSK ELISA of cell media during bone resorption, RAW 264.7; format: cell-based, mouse; parameters: dose or concentration left out as unconfirmed
# Protocol: Cathepsin K (CTSK) assay was conducted during bone resorption studies (as described above) as a useful tool to assess the effects of GaMH treatment on OC function. Supernatant from treated/untreated wells after the third treatment of differentiation factors was collected and spun down at 2000g for 10 minutes at 4° C. The supernatant was then assessed for its CTSK concentration using the mouse CTSK/Cathepsin K Sandwich ELISA kit as per manufacture protocol.
# [8] = system: RAW 264.7 cells; assay: Biocompatibility (MTT cell viability) of GaAcAc in pre-osteoclastic cells; format: cell-based, murine; details: GaAcAc 10-50 μg/mL, 37° C., vs untreated control
# Protocol: as §1, §2
# [9] = system: OC differentiation and function; details: earlier studies; cited from earlier work
# [10] = In-vivo retention by IVIS imaging with ICG marker; parameters: species or system BALB/c mice
# Protocol: In-vivo retention studies were carried out in healthy BALB/c mice using indocyanine green (ICG) as the marker with monitoring via the in-vivo imaging system (IVIS) Lumina XRMS series III (PerkinElmer, USA). All animal studies were performed according to a protocol approved by the Institutional Animal Care and Use Committee of Northeast Ohio Medical University.
# All treatments were administered by a single periosseous (intramuscular, bone adjacent) injection in the lower right hindlimb. The animals were observed via IVIS at a selected time point to obtain total radiant efficiency of the injection site with an excitation set at 780 nm and emission at 845 nm based on the earlier reported method. Okubo et al., International Journal of Pharmaceutics, 575: p. 118845(2020 ).
smiles,measurement,setting,value
"CC(=O)/C=C(/C)[O][Ga]([O]/C(C)=C\C(C)=O)[O]/C(C)=C\C(C)=O [GaAcAc, gallium acetylacetonate]",toxicity based on weight of animals,[1],did not show detectable toxicity
same,GaAcAc concentrations with significant inhibition of OC differentiation and OC count,"[2]; dose-dependent, p<0.0001",greater than 25 μg/mL
same,OC differentiation and OC counts,[2]; mHSCs,suppressed OC differentiation and OC counts
same,resorption pits on bone slices,[3]; 10 μg/mL GaAcAc,slightly reduced
same,number of pits formed,[3]; 50 μg/mL,significantly decrease the number of pits formed
same,expression levels of OC differentiation markers,[4]; 10 μg/mL GaAcAc,slight decrease in expression levels
same,expression levels of OC differentiation markers,[4]; 50 μg/mL GaAcAc,downregulation of expression levels
same,TRAP staining (representative images),[5]; 10 μg/mL,decrease in TRAP-stained cells
same,TRAP activity,[5]; 10 μg/mL,remarkable decrease in TRAP activity
same,number of TRAP-stained OCs (OC count),[5]; 10 μg/mL,significant reduction in the number of OCs
same,TRAP staining (representative images),[5]; 50 μg/mL,complete absence of multinucleated and TRAP-stained cells
same,TRAP activity,[5]; 50 μg/mL,remarkable decrease in TRAP activity
same,number of TRAP-stained OCs (OC count),[5]; 50 μg/mL,significant reduction in the number of OCs
same,viability of pre-OB cells,[6],did not affect the viability
same,reduction in level of CTSK,[7]; 50 GaAcAc solution,4 times reduction
same,reduction in CTSK concentration,[7]; GaAcAc solution (10),1.4 times reduction
same,viability of pre-OC cells,[8],did not affect the viability
"O=[N+]([O-])[O-].O=[N+]([O-])[O-].O=[N+]([O-])[O-].[Ga+3] [GaN, gallium nitrate]",OC differentiation and function,[9],effectively inhibit OC differentiation and function without affecting OBs
"CC1(C)C(/C=C/C=C/C=C/C=C2\N(CCCCS(=O)(=O)O)c3ccc4ccccc4c3C2(C)C)=[N+](CCCCS(=O)(=O)[O-])c2ccc3ccccc3c21 [ICG, Indocyanine green]",fluorescent intensity at injection site,"[10]; 8 hrs post-injection, single periosseous injection",diminished
same,fluorescent intensity at injection site,[10]; 24 hrs post injection,completely disappeared
